Measurements: patent US20070010466A1 (priority 2005, published 2007)
“Also recorded” adds a separate entry of the source.

Assays:
[1] = biological target: T1, P-gp function on circulating natural killer (NK) cells and leukemic blasts (Homo sapiens, UniProt P08183); assay: cellular P-gp function, DiOC2 accumulation assay with flow cytometry, in AML patients; assay type: in vivo
T1 construct: Pharmacodynamic assessments of cellular P-gp function were conducted using an accumulation assay with DiOC2 and flow cytometry; endogenous in cells; host or cells: circulating NK cells and leukemic blasts from AML patients
T1 sequence (P08183 whole entry): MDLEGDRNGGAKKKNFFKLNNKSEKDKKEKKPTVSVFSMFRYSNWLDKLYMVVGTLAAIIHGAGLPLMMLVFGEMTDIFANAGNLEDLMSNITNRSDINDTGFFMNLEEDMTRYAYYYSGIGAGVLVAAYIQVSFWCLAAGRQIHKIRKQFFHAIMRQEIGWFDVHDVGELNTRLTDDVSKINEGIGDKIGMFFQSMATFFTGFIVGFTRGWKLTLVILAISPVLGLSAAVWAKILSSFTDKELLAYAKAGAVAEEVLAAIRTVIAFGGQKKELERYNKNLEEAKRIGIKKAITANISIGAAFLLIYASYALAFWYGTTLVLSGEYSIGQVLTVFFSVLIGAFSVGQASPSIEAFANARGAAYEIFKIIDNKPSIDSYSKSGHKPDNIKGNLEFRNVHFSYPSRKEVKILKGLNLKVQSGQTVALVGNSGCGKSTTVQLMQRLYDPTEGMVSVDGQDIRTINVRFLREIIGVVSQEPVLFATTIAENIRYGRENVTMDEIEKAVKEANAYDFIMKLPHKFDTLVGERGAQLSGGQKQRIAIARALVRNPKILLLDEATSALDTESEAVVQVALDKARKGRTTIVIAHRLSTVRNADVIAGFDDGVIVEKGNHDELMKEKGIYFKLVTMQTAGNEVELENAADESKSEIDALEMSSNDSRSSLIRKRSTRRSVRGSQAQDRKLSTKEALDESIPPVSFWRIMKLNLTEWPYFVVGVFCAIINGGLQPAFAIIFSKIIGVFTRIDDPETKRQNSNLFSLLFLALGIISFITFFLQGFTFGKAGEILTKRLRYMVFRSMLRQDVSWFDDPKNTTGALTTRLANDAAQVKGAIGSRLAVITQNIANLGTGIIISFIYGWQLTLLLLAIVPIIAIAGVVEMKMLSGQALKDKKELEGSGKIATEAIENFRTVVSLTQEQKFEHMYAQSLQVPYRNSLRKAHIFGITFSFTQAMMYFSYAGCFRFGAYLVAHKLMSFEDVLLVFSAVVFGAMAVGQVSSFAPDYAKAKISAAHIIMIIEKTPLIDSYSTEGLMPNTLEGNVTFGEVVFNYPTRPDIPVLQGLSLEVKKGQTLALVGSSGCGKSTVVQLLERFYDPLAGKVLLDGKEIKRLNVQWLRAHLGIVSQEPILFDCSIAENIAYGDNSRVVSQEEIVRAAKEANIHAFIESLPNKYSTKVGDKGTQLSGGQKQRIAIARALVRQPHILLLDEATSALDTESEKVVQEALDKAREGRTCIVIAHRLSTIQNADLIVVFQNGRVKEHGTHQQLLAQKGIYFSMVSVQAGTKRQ
Description: Cytarabine was also administered (100 mg/m^2/day) starting after the first dose of daunorubicin as a continuous intravenous infusion on days 1-7. Blood samples were taken at intervals for pharmacokinetic and pharmacodynamic studies. Pharmacokinetic drug determinations were conducted by HPLC. Pharmacodynamic assessments of cellular P-gp function were conducted using an accumulation assay with DiOC2 and flow cytometry. P-gp function was assessed on circulating natural killer (NK) cells and leukemic blasts. […] Means of 3 patients for each time point are shown.

[2] = preclinical models, several oncolytics; cited from earlier work
[3] = clinical trials; cited from earlier work

For `O[C@@H](COc1cccc2ncccc12)CN1CCN([C@@H]2c3ccccc3[C@@H]3[C@H](c4ccccc42)C3(F)F)CC1` [zosuquidar], the “continued inhibition of P-gp functional activity after infusion was halted” value ([1]; after 72 hour infusion) is given as “at least 12 hours”, the “time to potent inhibition of P-gp function after start of infusion” value ([1]; both NK cells and leukemic blasts, 700 mg/day continuous iv infusion) is given as no more than 2 h and the “pharmacokinetic interaction with co-administered chemotherapy” value [2] is given as “no pharmacokinetic interaction; also recorded: minimal pharmacokinetic (PK) interactions”.

For `C/C=C/C[C@@H](C)C(=O)[C@H]1C(=O)N[C@@H](C(C)C)C(=O)N(C)CC(=O)N(C)[C@@H](CC(C)C)C(=O)N[C@@H](C(C)C)C(=O)N(C)[C@@H](CC(C)C)C(=O)N[C@@H](C)C(=O)N[C@H](C)C(=O)N(C)[C@@H](CC(C)C)C(=O)N(C)[C@@H](CC(C)C)C(=O)N(C)[C@@H](C(C)C)C(=O)N1C` [valspodar], the “pharmacokinetic interaction with coadministered cytotoxic agents” value [3] is listed as “significant pharmacokinetic interactions”.
